This note sets out measurements from patent US20040106626A1, “6-Membered unsaturated heterocyclic compounds useful for selective inhibition of the coagulation cascade” (Pharmacia Corporation, priority 2001, published 2004).

Common to all, as to type: biochemical
The target in test [1] is T1, recombinant soluble tissue factor and recombinant human factor VIIa (TF-VIIa) (Homo sapiens, UniProt P08709).
T1 construct: conversion of coagulation factor VII to VIIa by factor Xa; purchased American Diagnostica, Greenwich CT; host or cells: soluble TF made in house in E. coli
T1 sequence (P08709 213-466 limits assumed): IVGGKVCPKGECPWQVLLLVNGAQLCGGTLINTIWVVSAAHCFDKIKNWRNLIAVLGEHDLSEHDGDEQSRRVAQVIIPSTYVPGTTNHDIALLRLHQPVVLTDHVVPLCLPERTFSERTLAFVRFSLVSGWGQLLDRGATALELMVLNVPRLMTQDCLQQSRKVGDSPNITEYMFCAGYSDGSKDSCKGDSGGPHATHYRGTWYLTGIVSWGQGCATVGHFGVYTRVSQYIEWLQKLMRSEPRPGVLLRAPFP
T1 sequence (P08709 61-212 limits assumed): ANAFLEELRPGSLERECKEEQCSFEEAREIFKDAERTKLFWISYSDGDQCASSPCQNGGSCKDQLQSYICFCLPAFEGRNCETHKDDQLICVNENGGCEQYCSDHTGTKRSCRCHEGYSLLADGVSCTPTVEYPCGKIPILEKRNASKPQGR
T1 sequence (P13726 33-251 partner limits assumed): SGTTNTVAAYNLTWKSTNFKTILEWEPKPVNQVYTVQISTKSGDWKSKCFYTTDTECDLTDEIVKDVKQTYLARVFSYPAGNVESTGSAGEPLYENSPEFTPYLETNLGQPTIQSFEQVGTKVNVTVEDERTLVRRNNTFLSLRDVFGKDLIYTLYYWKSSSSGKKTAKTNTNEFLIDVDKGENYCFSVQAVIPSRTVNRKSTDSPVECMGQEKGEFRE
The experiment in a line: TF-VIIa assay (chromogenic substrate hydrolysis). The conditions noted are these: reported only as less than or greater than 0.1 uM. Here is the method: In this assay 100 nM recombinant soluble tissue factor and 2 nM recombinant human factor VIIa are added to a 96-well assay plate containing 0.4 mM of the substrate, N-methylsulfonyl-D-phe-gly-arg-p-nitroaniline and either inhibitor or buffer (5 mM CaCl2, 50 mM Tris-HCl, pH 8.0, 100 mM NaCl, 0.1% BSA). […] Percent inhibition of TF-VIIa activity is calculated from OD405 nm value from the experimental and control sample.
(§1) Recombinant human VIIa was purchased from American Diagnostica, Greenwich CT and chromogenic substrate N-methylsulfonyl-D-phe-gly-arg-p-nitroaniline was prepared by American Peptide Company, Inc., Sunnyvale, Calif. Factor Xa was obtained from Enzyme Research Laboratories, South Bend Ind., thrombin from Calbiochem, La Jolla, Calif., and trypsin and L-BAPNA from Sigma, St. Louis Mo.

For another test, the target named is T2, Human thrombin (Homo sapiens, UniProt P00734).
T2 construct: converts prothrombin (II) to thrombin (IIa); purchased Calbiochem, La Jolla, Calif
Kind of test: Thrombin assay (chromogenic substrate). The conditions noted are these: reported only as less than or greater than 30 uM; read-out: Thrombin (II) IC50. Here is the method: Percent inhibition of thrombin activity is calculated from OD405 nm value from the experimental and control sample.
as §1

The target in another test is T3, Human factor Xa (Homo sapiens, UniProt P00742).
T3 construct: purchased Enzyme Research Laboratories, South Bend Ind
T3 sequence (P00742 235-488 limits assumed): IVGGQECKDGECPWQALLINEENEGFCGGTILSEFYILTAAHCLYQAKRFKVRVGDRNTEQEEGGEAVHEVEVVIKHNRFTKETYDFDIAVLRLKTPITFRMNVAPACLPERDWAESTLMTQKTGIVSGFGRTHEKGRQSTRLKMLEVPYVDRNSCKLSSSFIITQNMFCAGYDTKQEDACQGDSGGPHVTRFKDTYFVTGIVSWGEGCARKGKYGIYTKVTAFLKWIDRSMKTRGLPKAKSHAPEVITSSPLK
T3 sequence (P00742 41-179 limits assumed): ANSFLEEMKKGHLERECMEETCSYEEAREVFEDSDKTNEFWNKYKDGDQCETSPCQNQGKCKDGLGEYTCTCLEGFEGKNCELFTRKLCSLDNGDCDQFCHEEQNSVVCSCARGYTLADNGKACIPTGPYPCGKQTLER
Kind of test: Xa assay (chromogenic substrate S-2765). The conditions noted are these: reported only as less than or greater than 30 uM; read-out: Factor Xa (II) IC50. Here is the method: Human factor Xa (0.3 nM) and 0.15 mM -a-Benzyloxycarbonyl-D-arginyl-L-glycyl-L-arginine-p-nitroaniline-dihydrochloride (S-2765) are added to a 96-well assay plate containing either inhibitor or buffer (50 mM Tris-HCl, pH 8.0, 100 mM NaCl, 0.1% BSA). The reaction, in a final volume of 100 ul is measured immediately at 405 nm to determine background absorbance. The plate is incubated at room temperature for 60 min, at which time the rate of hydrolysis of the substrate is measured by monitoring the reaction at 405 nm for the release of p-nitroaniline. Percent inhibition of Xa activity is calculated from OD405 nm value from the experimental and control sample.
Recombinant soluble TF, consisting of amino acids 1-219 of the mature protein sequence was expressed in E. coli and purified using a Mono Q Sepharose FPLC. Recombinant human VIIa was purchased from American Diagnostica, Greenwich CT and chromogenic substrate N-methylsulfonyl-D-phe-gly-arg-p-nitroaniline was prepared by American Peptide Company, Inc., Sunnyvale, Calif. Factor Xa was obtained from Enzyme Research Laboratories, South Bend Ind., thrombin from Calbiochem, La Jolla, Calif., and trypsin and L-BAPNA from Sigma, St. Louis Mo. The chromogenic substrates S-2765 and S-2238 were purchased from Chromogenix, Sweden.

Where a name gives a salt, the structure may show the parent alone.

For orientation: IC50 means the concentration that inhibits the measured activity by half. Regarding `COC(=O)c1cc(N)cc(-c2ncc(NC(C)C)c(=O)n2CC(=O)NCc2ccc(C(=N)N)cc2)c1` [Example 1], the IC50 in test [1] was < 100 nM; at Human thrombin, > 30 µM; on Human factor Xa it was > 30 µM.

On to `CC(C)Nc1cnc(-c2cc(N)cc(C(=O)O)c2)n(CC(=O)NCc2ccc(C(=N)N)cc2)c1=O` [Example 2], for which the IC50 in test [1] is < 100 nM; on Human thrombin it was > 30 µM; at Human factor Xa it was > 30 µM.

For the compound `CC(C)CNC(=O)c1cc(N)cc(-c2cnc(NC(C)C)c(=O)n2CC(=O)NCc2ccc(C(=N)N)cc2)c1` [Example 5], the IC50 in test [1] was < 100 nM; at Human thrombin, < 30 µM; on Human factor Xa, > 30 µM.

For `CC(C)Nc1ncc(-c2cc(N)cc(C(=O)NCc3cccc(F)c3)c2)n(CC(=O)NCc2ccc(C(=N)N)cc2)c1=O` [Example 8], the IC50 is < 100 nM in test [1], > 30 µM at Human thrombin and > 30 µM on Human factor Xa.

Consider `CC(C)Nc1ncc(-c2cc(N)cc(C(=O)NC3CCCCCC3)c2)n(CC(=O)NCc2ccc(C(=N)N)cc2)c1=O` [Example 9], for which the IC50 was < 100 nM in test [1], < 30 µM on Human thrombin and > 30 µM on Human factor Xa.

As for `CC(C)Nc1ncc(-c2cc(N)cc(C(=O)NC3CCCC3)c2)n(CC(=O)NCc2ccc(C(=N)N)cc2)c1=O` [Example 11], the half-maximal inhibitory concentration (IC50) is < 100 nM in test [1], < 30 µM on Human thrombin and < 30 µM on Human factor Xa.

Consider `CC(C)Nc1ncc(-c2cc(N)cc(C(=O)NC[Si](C)(C)C)c2)n(CC(=O)NCc2ccc(C(=N)N)cc2)c1=O` [Example 12], for which the IC50 in test [1] was < 100 nM; on Human thrombin it was > 30 µM; on Human factor Xa it was > 30 µM.

As to `CC(C)Nc1ncc(-c2cc(N)cc(C(=O)NC(C)(C)c3ccccc3)c2)n(CC(=O)NCc2ccc(C(=N)N)cc2)c1=O` [Example 13], the half-inhibitory concentration (IC50) in test [1] was < 100 nM; at Human thrombin, < 30 µM; at Human factor Xa, > 30 µM.

Regarding `COC(=O)c1cc(N)cc(-c2cnc(NC(C)C)c(=O)n2CC(=O)NCc2c(F)c(O)c(C(=N)N)c(F)c2F)c1` [Example 20], the IC50 in test [1] is > 100 nM; on Human thrombin, > 30 µM; on Human factor Xa it was > 30 µM.

For the compound `COC(=O)c1cc(N)cc(-c2cnc(NC(C)C)c(=O)n2CC(=O)NCc2ccc(C(=N)N)cc2)c1` [Example 21, Methyl 3-amino-5-[1-[2-({4-[amino(imino)methyl]benzyl}amino)-2-oxoethyl]-5-(isopropylamino)-6-oxo-1,6-dihydropyrazin-2-yl]benzoate Trifluoroacetate], the IC50 is < 100 nM in test [1], > 30 µM at Human thrombin and > 30 µM on Human factor Xa.

Take `COC(=O)Cc1cc(N)c(OC)c(-c2cnc(NC(C)C)c(=O)n2CC(=O)NCc2ccc(C(=N)N)cc2)c1` [Example 22, Methyl {3-amino-5-[1-[2-({4-[amino(imino)methyl]benzyl}amino)-2-oxoethyl]-5-(isopropylamino)-6-oxo-1,6-dihydropyrazin-2-yl]-4-methoxyphenyl}acetate]: the IC50 in test [1] is > 100 nM; on Human thrombin, > 30 µM; on Human factor Xa, > 30 µM.

`COc1c(N)cc(CC(=O)O)cc1-c1cnc(NC(C)C)c(=O)n1CC(=O)NCc1ccc(C(=N)N)cc1` [Example 23, {3-Amino-5-[1-[2-({4-[amino(imino)methyl]benzyl}amino)-2-oxoethyl]-5-(isopropylamino)-6-oxo-1,6-dihydropyrazin-2-yl]-4-methoxyphenyl}acetic Acid]: the IC50 in test [1] is > 100 nM; on Human thrombin, > 30 µM; at Human factor Xa it was > 30 µM.

As for `CC(C)Nc1ncc(-c2cc(N)cc(C(=O)NCc3ccccc3)c2)n(CC(=O)NCc2ccc(C(=N)N)cc2)c1=O` [Example 25], the half-maximal inhibitory concentration (IC50) is < 100 nM in test [1], < 30 µM on Human thrombin and > 30 µM on Human factor Xa.

`COCCNC(=O)c1cc(N)cc(-c2cnc(NC(C)C)c(=O)n2CC(=O)NCc2ccc(C(=N)N)cc2)c1` [Example 26, 3-amino-5-[1-[2-({4-[amino(imino)methyl]benzyl}amino)-2-oxoethyl]-5-(isopropylamino)-6-oxo-1,6-dihydropyrazin-2-yl]-N-(2-methoxyethyl)benzamide]: the concentration for half-maximal inhibition (IC50) in test [1] is < 100 nM; at Human thrombin it was > 30 µM; on Human factor Xa, > 30 µM.

As to `CC(C)CNC(=O)c1cc(N)cc(-c2cnc(NC(C)C)c(=O)n2CC(=O)NCc2ccc(C(=N)N)cc2)c1` [Example 27], the results for the IC50 (in test [1]; on Human thrombin; on Human factor Xa) were < 100 nM, > 30 µM and > 30 µM, respectively.

On to `CC(C)Nc1ncc(-c2cc(N)cc(C(=O)NCCO)c2)n(CC(=O)NCc2ccc(C(=N)N)cc2)c1=O` [Example 30], for which the IC50 is > 100 nM in test [1], > 30 µM on Human thrombin and > 30 µM on Human factor Xa.

As for `CNC(=O)c1cc(N)cc(-c2cnc(NC(C)C)c(=O)n2CC(=O)NCc2ccc(C(=N)N)cc2)c1` [Example 38], the 50% inhibitory concentration (IC50) was < 100 nM in test [1] and > 30 µM at Human factor Xa.

On to `COCCNC(=O)c1cc(N)cc(-c2cnc(NC(C)C)c(=O)n2CC(=O)NCc2ccc(C(=N)N)cc2)c1` [Example 39], for which the IC50 in test [1] was < 100 nM; at Human factor Xa it was > 30 µM.

Take `CC(C)Nc1ncc(-c2cc(N)cc(C(=O)NCCN3CCOCC3)c2)n(CC(=O)NCc2ccc(C(=N)N)cc2)c1=O` [Example 40]: the figures for the IC50 (in test [1]; at Human factor Xa) were < 100 nM and > 30 µM, respectively.

In the case of `CC(C)Nc1ncc(-c2cc(N)cc(C(=O)NCCN3CCCC3)c2)n(CC(=O)NCc2ccc(C(=N)N)cc2)c1=O` [Example 41], the IC50 in test [1] is < 100 nM; on Human factor Xa, > 30 µM.

With `CONC(=O)c1cc(N)cc(-c2cnc(NC(C)C)c(=O)n2CC(=O)NCc2ccc(C(=N)N)cc2)c1` [Example 42], the values for the IC50 (in test [1]; on Human factor Xa) were < 100 nM and > 30 µM, respectively.

For the compound `CC(C)Nc1ncc(-c2cc(N)cc(C(=O)NC(C)(CO)CO)c2)n(CC(=O)NCc2ccc(C(=N)N)cc2)c1=O` [Example 43], the half-inhibitory concentration (IC50) in test [1] was < 100 nM; on Human factor Xa, > 30 µM.

In the case of `CCOC(=O)c1cc(N)cc(-c2cnc(NC(C)C)c(=O)n2CC(=O)NCc2ccc(C(=N)N)cc2)c1` [Example 44], the figures for the IC50 (in test [1]; on Human factor Xa) were < 100 nM and > 30 µM, respectively.

With `CC(C)Nc1ncc(-c2cc(N)cc(C(=O)NC(C)(C)CCO)c2)n(CC(=O)NCc2ccc(C(=N)N)cc2)c1=O` [Example 45], the IC50 in test [1] is < 100 nM; at Human factor Xa, > 30 µM.

With `CC(C)Nc1ncc(-c2cc(N)cc(C(N)=O)c2)n(CC(=O)NCc2ccc(C(=N)N)cc2)c1=O` [Example 47], the IC50 is < 100 nM in test [1] and > 30 µM at Human factor Xa.

Consider `CCCCN(CCCC)c1cc(N)cc(-c2cnc(NC(C)C)c(=O)n2CC(=O)NCc2ccc(C(=N)N)cc2)c1` [Example 149], for which the IC50 in test [1] is > 100 nM.

As for `CC(C)Nc1ncc(-c2cc(N)cc(NC(=O)C3CCNCC3)c2)n(CC(=O)NCc2ccc(C(=N)N)cc2)c1=O` [Example 150], the IC50 in test [1] was < 100 nM.

As for `CC(C)Nc1ncc(-c2cc(N)cc(NC(=O)C3CCCNC3)c2)n(CC(=O)NCc2ccc(C(=N)N)cc2)c1=O` (stereo not drawn) [Example 151], the 50% inhibitory concentration (IC50) in test [1] is < 100 nM.

On to `CC(C)Nc1ccc(-c2cc(N)cc(N)c2)n(CC(=O)NCc2ccc(C(=N)N)cc2)c1=O` [Example 163], for which the IC50 in test [1] is > 100 nM.

In the case of `N=C(N)c1c(O)c(F)c(CNC(=O)Cn2c(-c3cc(N)cc(C(F)(F)F)c3)cnc(NC3CC3)c2=O)c(F)c1F` [Example 243], the 50% inhibitory concentration (IC50) was > 100 nM in test [1] and > 30 µM on Human thrombin.

Consider `CC[C@@H](C)NC(=O)c1cc(N)cc(-c2cnc(NC(C)C)c(=O)n2CC(=O)NCc2c(O)cc(C(=N)N)cc2OCC(=O)O)c1` [Example 244], for which the IC50 in test [1] was > 100 nM; at Human thrombin it was > 30 µM.

Regarding `CC[C@@H](C)NC(=O)c1cc(N)cc(-c2cnc(N[C@@H](C)CO)c(=O)n2CC(=O)NCc2ccc(C(=N)N)cc2)c1` [Example 248], the IC50 in test [1] is < 100 nM; at Human thrombin it was < 30 µM.

`CC[C@@H](C)NC(=O)c1cc(N)cc(-c2cnc(NC(C)C)c(=O)n2CC(=O)NCc2c(O)cc(C(=N)N)cc2OCc2cccnc2)c1` [Example 255]: the 50% inhibitory concentration (IC50) in test [1] was > 100 nM; on Human thrombin it was > 30 µM.
